Assay results from patent US20230145305A1, “COMPOUNDS USEFUL AS KINASE INHIBITORS” (Fochon Biosciences, Ltd., priority 2020, published 2023).

System: OCI-LY10 cells
Test: Cell proliferation assay (MTS) in OCI-LY10 cells
Format: cell-based
Conditions: Homo sapiens, OCI-Ly10, 72 h, read-out: OCI-LY10 IC50 (nM)
Source text: MTS testing kit was purchased from Promega (Madison, Wis., USA). The RPMI-1640, Fetal bovine serum and Penicillin-Streptomycin were purchased from BI (Biological Industries, Beit Haemek, Israel). Dimethyl sulfoxide (DMSO) was purchased from Sigma (St. Louis., Mo., USA). […] To investigate whether a compound is able to inhibit the activity of BTK in cells, a mechanism-based assay using OCI-LY10 cells was developed. In this assay, inhibition of BTK was detected by the inhibition of OCI-LY10 cells proliferation. Cells were plated into 96-well plates at a density of 10000 cells/well. Plates were incubated at 37° C., with 5% CO2 for 4 h. […] Plates were incubated at 37° C., with 5% CO2 for 72 h. 20 μl MTS was added into each well and the plates were incubated at 37° C., with 5% CO2 for exactly 2 h. The absorbance was measured by a microplate reader at 490 nm. IC50 was calculated using GraphPad Prism 5.0 software. Select compounds prepared as described above were assayed according to the biological procedures described herein.

Row | SMILES | IC50 [nM]
1 | COc1ccc(F)cc1C(=O)NCc1ccc(-c2nn(C3CCCC3)c3c(=O)[nH]nc(N)c23)cc1F [Example 62, N-(4-(4-amino-1-cyclopentyl-7-oxo-6,7-dihydro-1H-pyrazolo[3,4-d]pyridazin-3-yl)-2-fluorobenzyl)-5-fluoro-2-methoxybenzamide] | 1

Same assay, conditions: Homo sapiens; inhibition of OCI-LY10 cells proliferation, 72 h incubation, MTS, absorbance at 490 nm; read-out: OCI-LY10 IC50

Row | IC50 [nM] | SMILES
2 | 11 | COc1ccc(F)cc1C(=O)NCc1ccc(-c2cn([C@@H]3CCN(C(=O)N4CCC4)C3)c3c(=O)[nH]nc(N)c23)cc1 [Example 107, (R)-N-(4-(4-amino-1-(1-(azetidine-1-carbonyl)pyrrolidin-3-yl)-7-oxo-6,7-dihydro-1H-pyrrolo[2,3-d]pyridazin-3-yl)benzyl)-5-fluoro-2-methoxybenzamide]
3 | 62 | COc1ccc(F)cc1C(=O)NCc1ccc(-c2cn([C@@H]3C[C@@H]3F)c3c(=O)[nH]nc(N)c23)cc1F [Example 59, N-(4-(4-amino-1-((1R,2S)-2-fluorocyclopropyl)-7-oxo-6,7-dihydro-1H-pyrrolo[2,3-d]pyridazin-3-yl)-2-fluorobenzyl)-5-fluoro-2-methoxybenzamide]
4 | 1 | COc1ccc(F)cc1C(=O)NCc1ccc(-n2cc(C3CCCC3)c3ncnc(N)c32)cc1 [Example 18, N-(4-(4-amino-7-cyclopentyl-5H-pyrrolo [3,2-d]pyrimidin-5-yl)benzyl)-5-flu oro-2-methoxybenzamide]
5 | 24 | COc1ccc(F)cc1C(=O)NCc1ccc(-c2cn([C@@H]3C[C@@H]3F)c3c(=O)[nH]nc(N)c23)cc1 [Example 57, N-(4-(4-amino-1-((1R,2S)-2-fluorocyclopropyl)-7-oxo-6,7-dihydro-1H-pyrrolo[2,3-d]pyridazin-3-yl)benzyl)-5-fluoro-2-methoxybenzamide]
6 | 1 | COc1ccc(F)cc1C(=O)NCc1ccc(-n2nc(C(C)(C)C)c3c(=O)[nH]nc(N)c32)cc1 [Example 94, N-(4-(7-amino-3-(tert-butyl)-4-oxo-4,5-dihydro-1H-pyrazolo[3,4-d]pyridazin-1-yl)benzyl)-5-fluoro-2-methoxybenzamide]
7 | 1 | COc1ccc(F)cc1C(=O)NCc1ccc(-c2nn([C@H](C)C3CC3)c3c(=O)[nH]nc(N)c23)cc1 [Example 77a, (R)-N-(4-(4-amino-1-(1-cyclopropylethyl)-7-oxo-6,7-dihydro-1H-pyrazolo[3,4-d]pyridazin-3-yl)benzyl)-5-fluoro-2-methoxybenzamide]
8 | 50 | COc1cc(F)c(F)cc1C(=O)NCc1ccc(-c2cn(C3CCCC3)c3c(=O)[nH]nc(N)c23)cc1 [Example 79, N-(4-(4-amino-1-cyclopentyl-7-oxo-6,7-dihydro-1H-pyrrolo[2,3-d]pyridazin-3-yl)benzyl)-4,5-difluoro-2-methoxybenzamide]
9 | 14 | COc1ccc(F)cc1C(=O)NCc1ccc(-c2cn([C@@H]3CCN(S(=O)(=O)C(C)C)C3)c3c(=O)[nH]nc(N)c23)cc1 [Example 111, (R)-N-(4-(4-amino-1-(1-(isopropylsulfonyl)pyrrolidin-3-yl)-7-oxo-6,7-dihydro-1H-pyrrolo[2,3-d]pyridazin-3-yl)benzyl)-5-fluoro-2-methoxybenzamide]
10 | 3 | COc1ccc(F)cc1C(=O)NCc1ccc(-c2cn(C3CC(F)(F)C3)c3c(=O)[nH]nc(N)c23)cc1F [Example 56, N-(4-(4-amino-1-(3,3-difluorocyclobutyl)-7-oxo-6,7-dihydro-1H-pyrrolo[2,3-d]pyridazin-3-yl)-2-fluorobenzyl)-5-fluoro-2-methoxybenzamide]
11 | 9 | COC(=O)N1CC[C@@H](n2cc(-c3ccc(CNC(=O)c4cc(F)ccc4OC)cc3)c3c(N)n[nH]c(=O)c32)C1 [Example 49, methyl (R)-3-(4-amino-3-(4-((5-fluoro-2-methoxybenzamido)methyl)phenyl)-7-oxo-6,7-dihydro-1H-pyrrolo[2,3-d]pyridazin-1-yl)pyrrolidine-1-carboxylate]
12 | 1 | COc1ccc(F)cc1C(=O)NCc1ccc(-c2nn([C@@H]3CCCC3(F)F)c3c(=O)[nH]nc(N)c23)cc1 [Example 72, (R)-N-(4-(4-amino-1-(2,2-difluorocyclopentyl)-7-oxo-6,7-dihydro-1H-pyrazolo[3,4-d]pyridazin-3-yl)benzyl)-5-fluoro-2-methoxybenzamide]
13 | 18 | COc1ccc(F)cc1C(=O)NCc1ccc(-n2nc(C(C)C(F)(F)F)c3c(=O)[nH]nc(N)c32)cc1 (stereo not drawn) [Example 41, N-(4-(7-amino-4-oxo-3-(1,1,1-trifluoropropan-2-yl)-4,5-dihydro-1H-pyrazolo[3,4-d]pyridazin-1-yl)benzyl)-5-fluoro-2-methoxybenzamide]
14 | 1 | COc1ccc(F)cc1C(=O)NCc1ccc(-c2nn(C3(C)CCC3)c3c(=O)[nH]nc(N)c23)cc1 [Example 73, N-(4-(4-amino-1-(1-methylcyclobutyl)-7-oxo-6,7-dihydro-1H-pyrazolo[3,4-d]pyridazin-3-yl)benzyl)-5-fluoro-2-methoxybenzamide]
15 | 26 | COc1ccc(F)cc1C(=O)NCc1ccc(-c2nn(C(CO)C(F)(F)F)c3c(=O)[nH]nc(N)c23)cc1 (stereo not drawn) [Example 78, N-(4-(4-amino-7-oxo-1-(1,1,1-trifluoro-3-hydroxypropan-2-yl)-6,7-dihydro-1H-pyrazolo[3,4-d]pyridazin-3-yl)benzyl)-5-fluoro-2-methoxybenzamide]
16 | 2 | COc1ccc(F)cc1C(=O)NCc1ccc(-c2cn([C@@H]3CCN(S(=O)(=O)C4CC4)C3)c3c(=O)[nH]nc(N)c23)cc1 [Example 112, (R)-N-(4-(4-amino-1-(1-(cyclopropylsulfonyl)pyrrolidin-3-yl)-7-oxo-6,7-dihydro-1H-pyrrolo[2,3-d]pyridazin-3-yl)benzyl)-5-fluoro-2-methoxybenzamide]
17 | 90 | COc1ccc(F)cc1C(=O)NCc1ccc(-n2nc(C3CCCO3)c3c(=O)[nH]nc(N)c32)cc1 (stereo not drawn) [Example 86, N-(4-(7-amino-4-oxo-3-(tetrahydrofuran-2-yl)-4,5-dihydro-1H-pyrazolo[3,4-d]pyridazin-1-yl)benzyl)-5-fluoro-2-methoxybenzamide]
18 | 30 | COc1ccc(F)cc1C(=O)NCc1ccc(-n2c(=O)n(C3CCCC3)c3c(=O)[nH]nc(N)c32)cc1 [Example 60, N-(4-(7-amino-3-cyclopentyl-2,4-dioxo-2,3,4,5-tetrahydro-1H-imidazo[4,5-d]pyridazin-1-yl)benzyl)-5-fluoro-2-methoxybenzamide]
19 | 2 | COc1ccc(F)cc1C(=O)NCc1ccc(-c2nn(C(C)C)c3c(=O)[nH]nc(N)c23)cc1 [Example 68, N-(4-(4-amino-1-isopropyl-7-oxo-6,7-dihydro-1H-pyrazolo[3,4-d]pyridazin-3-yl)benzyl)-5-fluoro-2-methoxybenzamide]
20 | 2 | COc1ccc(F)cc1C(=O)NCc1ccc(-c2nc(C3CCCC3)n3ccnc(N)c23)cc1 [Example 13, N-(4-(8-amino-3-cyclopentylimidazo [l,5-a]pyrazin-1-yl)benzyl)-5-fluoro-2-methoxybenzamide]
21 | 1 | COc1ccc(F)cc1C(=O)NCc1ccc(-n2cc(C3CCCCC3)c3c(=O)[nH]nc(N)c32)cc1 [Example 27, N-(4-(7-amino-3-cyclohexyl-4-oxo-4,5-dihydro-1H-pyrrolo[2,3-d]pyridazin-1-yl)benzyl)-5-fluoro-2-methoxybenzamide]
22 | 18 | COc1ccc(F)cc1C(=O)NCc1ccc(-c2nn(C(C)(C)C(F)F)c3c(=O)[nH]nc(N)c23)cc1 [Example 85, N-(4-(4-amino-1-(1,1-difluoro-2-methylpropan-2-yl)-7-oxo-6,7-dihydro-1H-pyrazolo[3,4-d]pyridazin-3-yl)benzyl)-5-fluoro-2-methoxybenzamide]
23 | 15 | COc1ncc(F)cc1C(=O)NCc1ccc(-c2nn(C3CCCC3)c3c(=O)[nH]nc(N)c23)cc1 [Example 61, N-(4-(4-amino-1-cyclopentyl-7-oxo-6,7-dihydro-1H-pyrazolo[3,4-d]pyridazin-3-yl)benzyl)-5-fluoro-2-methoxynicotinamide]
24 | 11 | COc1ccc(F)cc1C(=O)NCc1ccc(-c2cn([C@@H]3CCN(C(=O)OC4CC4)C3)c3c(=O)[nH]nc(N)c23)cc1 [Example 106, cyclopropyl (R)-3-(4-amino-3-(4-((5-fluoro-2-methoxybenzamido)methyl)phenyl)-7-oxo-6,7-dihydro-1H-pyrrolo[2,3-d]pyridazin-1-yl)pyrrolidine-1-carboxylate]
25 | 92 | COc1ccc(F)cc1C(=O)NCc1ccc(-n2nc(C3(F)CC3)c3c(=O)[nH]nc(N)c32)cc1 [Example 98, N-(4-(7-amino-3-(1-fluorocyclopropyl)-4-oxo-4,5-dihydro-1H-pyrazolo[3,4-d]pyridazin-1-yl)benzyl)-5-fluoro-2-methoxybenzamide]
26 | 85 | COc1ccc(F)cc1C(=O)NCc1ccc(-n2nc(C3CCCC3)c3ccnc(N)c32)cc1 [Example 14, N-(4-(7-amino-3-cyclopentyl-1H-pyrazolo [3,4-c]pyridin-1-yl)benzyl)-5-fluoro-2-methoxybenzamide]
27 | 76 | COc1ccc(F)cc1C(=O)NCc1ccc(-n2c(=O)n(C3CCC3)c3c(=O)[nH]nc(N)c32)cc1 [Example 102, N-(4-(7-amino-3-cyclobutyl-2,4-dioxo-2,3,4,5-tetrahydro-1H-imidazo[4,5-d]pyridazin-1-yl)benzyl)-5-fluoro-2-methoxybenzamide]
